Patent US9944618B2, “Inhibiting neurotransmitter reuptake” (Mayo Foundation for Medical Education and Research, priority 2013, dated 2018)
Read-outs that look alike come from different tables or passages of the source.

Key:
[1] = pKa of basic centres (Table 1); format: physicochemical
[2] = target: human norepinephrine transporter (Homo sapiens (Human), UniProt P23975); test: Human NET (norepinephrine transporter) uptake assay; format: cell-based; details: read-out: hNET Ki
Description: This protocol was designed to measure inhibition of uptake by the human norepinephrine transporter. […] The Assay Buffer (AB) was 1×HBSS and 0.02 M HEPES.
(§1) The HEK293F cells were transfected with the human norepinephrine transporter and frozen in 1 mL aliquots at about 1E+07 cells/mL. On the day of the experiment, the cells were removed from −80° C. or liquid nitrogen and thawed in a room temperature water bath. The cells were dilute to about 1-2E+06 with Freestyle medium. A 1 mL sample (1:2 dilution) was prepared, and the cells were counted. The cells were spun at 1100 rpm for 5 minutes, and the medium was aspirated off. The cells were resuspend in medium at 1.5E+06 cells/mL for about 60,000 cells per well. 40 μL of cells were dispensed per well in the Biocoat plates. The plates were spun at 1100 rpm for 1 minute to improve homogeneity of the cell layer and were incubated at 37° C. for a minimum of 3 hours.
(§2) 12 μL of test compound (10 mM) in DMSO was added to the wells, and nomifensine was used as a control. […] The neurotransmitter transporter dye was prepared in AB prior to use.
(§3) Due to the proprietary nature of the dye formulation, all dye concentrations were expressed as a percentage of the vendor-recommended dye reconstitution. Thus, the above calculations were valid when both [dye] and Km were expressed in the same units (%). Compounds were tested in triplicate (n=3).

[3] = target: human dopamine transporter (Homo sapiens (Human), UniProt Q01959); test: Human DAT (dopamine transporter) uptake assay; format: cell-based; details: read-out: hDAT Ki
Sequence of human dopamine transporter (Q01959 whole entry): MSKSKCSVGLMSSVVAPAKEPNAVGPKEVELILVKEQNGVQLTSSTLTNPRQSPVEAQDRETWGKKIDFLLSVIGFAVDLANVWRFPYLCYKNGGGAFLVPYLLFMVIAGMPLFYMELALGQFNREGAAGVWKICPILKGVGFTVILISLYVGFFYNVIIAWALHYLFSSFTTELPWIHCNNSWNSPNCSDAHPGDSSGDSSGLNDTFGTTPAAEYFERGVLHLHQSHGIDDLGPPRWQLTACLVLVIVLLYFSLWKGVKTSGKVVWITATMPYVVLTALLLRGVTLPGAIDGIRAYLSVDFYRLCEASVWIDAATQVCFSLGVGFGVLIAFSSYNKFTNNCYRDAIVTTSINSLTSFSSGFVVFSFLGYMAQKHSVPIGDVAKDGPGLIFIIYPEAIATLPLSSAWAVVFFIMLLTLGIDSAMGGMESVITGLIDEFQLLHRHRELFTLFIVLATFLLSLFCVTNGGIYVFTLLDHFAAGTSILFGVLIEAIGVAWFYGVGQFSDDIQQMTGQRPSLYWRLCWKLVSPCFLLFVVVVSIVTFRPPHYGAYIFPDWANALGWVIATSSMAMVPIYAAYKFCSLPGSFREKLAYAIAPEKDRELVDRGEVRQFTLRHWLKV
Description: This protocol was designed to measure inhibition of uptake by the human dopamine transporter. […] The Assay Buffer (AB) was 1×HBSS and 0.02 M HEPES.
as §1, with “dopamine” for “norepinephrine”
as §2
Due to the proprietary nature of the dye formulation, all dye concentrations were expressed as a percentage of the vendor-recommended dye reconstitution. Thus, the above calculations were valid when both [dye] and K1 were expressed in the same units (%). Compounds were tested in triplicate (n=3).

[4] = target: human serotonin transporter (Homo sapiens (Human), UniProt P31645); test: Human SERT (serotonin transporter) uptake assay; format: cell-based; details: read-out: hSERT Ki
Sequence of human serotonin transporter (P31645 whole entry): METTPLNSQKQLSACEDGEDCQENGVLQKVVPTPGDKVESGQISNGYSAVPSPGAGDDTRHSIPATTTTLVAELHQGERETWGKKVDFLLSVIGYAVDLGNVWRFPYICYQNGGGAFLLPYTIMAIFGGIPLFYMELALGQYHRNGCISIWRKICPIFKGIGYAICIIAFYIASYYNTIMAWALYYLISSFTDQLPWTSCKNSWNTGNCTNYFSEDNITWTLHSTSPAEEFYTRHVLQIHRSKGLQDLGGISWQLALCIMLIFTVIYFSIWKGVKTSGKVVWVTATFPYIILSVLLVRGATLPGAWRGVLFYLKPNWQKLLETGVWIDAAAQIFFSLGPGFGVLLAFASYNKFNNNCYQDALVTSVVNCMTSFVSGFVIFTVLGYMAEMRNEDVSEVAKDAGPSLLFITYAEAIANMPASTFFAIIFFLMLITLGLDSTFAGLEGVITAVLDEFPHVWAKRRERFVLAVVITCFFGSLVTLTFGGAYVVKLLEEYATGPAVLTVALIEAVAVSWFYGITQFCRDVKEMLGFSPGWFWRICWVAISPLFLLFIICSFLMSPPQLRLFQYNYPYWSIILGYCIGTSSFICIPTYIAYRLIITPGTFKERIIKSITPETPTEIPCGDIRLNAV
Description: This protocol was designed to measure inhibition of uptake by the human serotonin transporter. […] The Assay Buffer (AB) was […] and 0.02 M HEPES.
as §1, with “serotonin” for “norepinephrine”
12 μL of test compound (10 mM) in DMSO was added to the wells, and nomifensine was used as a control. Fluoxetine (final assay concentration of 10 μM) was used for background signal. The neurotransmitter transporter dye was prepared in AB prior to use.
as §3

CYP2D6 = CYP2D6 (Homo sapiens (Human), UniProt P10635); test: Cytochrome P450 inhibition assay, recombinant CYP2D6 (MAMC substrate); format: in vitro ADME; details: recombinant enzyme
Sequence of CYP2D6 (P10635 whole entry): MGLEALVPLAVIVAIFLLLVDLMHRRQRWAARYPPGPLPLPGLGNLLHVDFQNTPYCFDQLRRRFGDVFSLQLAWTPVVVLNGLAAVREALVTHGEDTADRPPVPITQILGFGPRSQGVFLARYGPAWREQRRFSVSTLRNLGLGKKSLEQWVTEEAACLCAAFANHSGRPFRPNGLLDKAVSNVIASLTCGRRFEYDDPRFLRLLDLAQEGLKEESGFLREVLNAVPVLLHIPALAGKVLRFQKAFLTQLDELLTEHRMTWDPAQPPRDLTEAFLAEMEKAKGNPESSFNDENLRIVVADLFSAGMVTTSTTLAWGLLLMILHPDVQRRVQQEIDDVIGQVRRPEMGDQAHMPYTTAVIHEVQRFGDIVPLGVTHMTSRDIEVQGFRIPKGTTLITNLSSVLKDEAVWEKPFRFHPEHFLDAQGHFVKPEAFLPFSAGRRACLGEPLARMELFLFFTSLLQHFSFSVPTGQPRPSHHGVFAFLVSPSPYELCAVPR

[5] = first base, e.g., an aliphatic primary, secondary, or tertiary amine, read-out: pKa (Base 1)

Sequence of human norepinephrine transporter (P23975 whole entry): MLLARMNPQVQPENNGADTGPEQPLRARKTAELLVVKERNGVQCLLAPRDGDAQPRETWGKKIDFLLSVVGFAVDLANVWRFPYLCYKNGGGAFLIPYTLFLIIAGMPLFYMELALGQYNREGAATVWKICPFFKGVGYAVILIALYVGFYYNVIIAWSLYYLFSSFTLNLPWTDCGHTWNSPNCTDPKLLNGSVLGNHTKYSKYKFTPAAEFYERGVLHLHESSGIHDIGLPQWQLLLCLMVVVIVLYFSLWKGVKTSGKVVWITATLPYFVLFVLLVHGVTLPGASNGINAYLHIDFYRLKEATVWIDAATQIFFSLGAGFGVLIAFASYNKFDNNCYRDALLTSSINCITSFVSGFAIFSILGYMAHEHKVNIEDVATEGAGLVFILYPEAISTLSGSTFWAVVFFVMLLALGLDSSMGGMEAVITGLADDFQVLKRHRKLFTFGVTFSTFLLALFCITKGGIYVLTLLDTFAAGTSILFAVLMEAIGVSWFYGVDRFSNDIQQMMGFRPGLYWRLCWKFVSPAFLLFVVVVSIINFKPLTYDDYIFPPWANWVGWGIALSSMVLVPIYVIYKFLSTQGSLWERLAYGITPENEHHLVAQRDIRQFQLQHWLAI

Row | Compound | pKa [1, 5] | Ki [2] | Ki [3] | Ki [4] | pKa ([1]; second base in the same molecule (if present), read-out: pKa (Base 2)) | IC50 (CYP2D6) | pKa (Base 1) ([1]; first base, e.g., an aliphatic primary, secondary, or tertiary amine)
1 | CNC[C@H](c1ccc2ccccc2c1)[C@@H](O)c1ccncc1Cl [Compound 7] | 9.5 | 1.4 nM | 6.6 nM | 3.6 nM | 3 | – | –
2 | CN1CCO[C@@H](c2ccccc2)[C@H](c2ccc3ccccc3c2)C1 [Compound 124] | 8.2 | 338 nM | 15.3 nM | 167 nM | – | 3000 nM | –
3 | CNC[C@H](c1ccc(Cl)cc1)[C@H](O)c1ccccc1 (racemic) [Compound 148] | 9.7 | 8.5 nM | 114 nM | 191 nM | – | – | –
4 | CN1CCO[C@@H](c2ccccc2)[C@@H](c2ccc3ccccc3c2)C1 [Compound 123] | 8.2 | 290 nM | 379 nM | 12 nM | – | 6600 nM | –
5 | CNC[C@H](c1ccc(OC)c(C)c1)[C@H](O)c1ccccc1 (racemic) [Compound 54] | 10 | 4.5 nM | 971 nM | 2.4 nM | – | – | –
6 | CNC[C@H](c1ccc(Br)cc1)[C@H](O)c1ccccc1 (racemic) [Compound 149] | 9.7 | 7.7 nM | 129 nM | 119 nM | – | – | –
7 | CNCC(CCc1ccccc1)[C@@H](O)c1ccccc1 (stereo partly drawn) [Compound 147] | 10.1 | 45.7 nM | 121 nM | 800 nM | – | – | –
8 | CNC[C@@H](c1ccc(Br)c(Cl)c1)[C@H](O)c1ccccc1 (racemic) [Compound 150] | 9.4 | 6.3 nM | 31.8 nM | 51.5 nM | – | – | –
9 | CNC[C@H](c1ccc2ccccc2c1)[C@H](O)c1cc(F)cc(F)c1 (single isomer, unassigned) [Compound 37] | 9.6 | 3 nM | 63.6 nM | 54.6 nM | – | – | –
10 | CNCC(CCc1ccccc1)[C@@H](O)c1ccccc1 (stereo partly drawn) [Compound 27] | – | 2.3 nM | 96.7 nM | 252 nM | – | – | 10.1
11 | O[C@@H](c1ccccc1)[C@@H](CNCC(F)(F)F)c1ccc2ccccc2c1 (single isomer, unassigned) [Compound 130] | 4.6 | 4570 nM | 87.3 nM | 3370 nM | – | 3700 nM | –

Now from value to molecule:

Row | pKa [1, 5] | Ki [2] | Ki [3] | Ki [4] | pKa ([1]; second base in the same molecule (if present), read-out: pKa (Base 2)) | IC50 (CYP2D6) | pKa (Base 1) ([1]; first base, e.g., an aliphatic primary, secondary, or tertiary amine) | Compound
12 | 9.6 | 2.4 nM | 24.6 nM | 1.9 nM | – | – | – | CNC[C@H](c1ccc2ccccc2c1)[C@H](OCc1cccn(C)c1=O)c1ccccc1 [Compound 31]
13 | 9.6 | 8.4 nM | 55.5 nM | 29.7 nM | – | – | – | CNC[C@H](c1ccc2ccccc2c1)[C@H](OCC(=O)NCC(F)(F)F)c1ccccc1 [Compound 68]
14 | 9.7 | 14.4 nM | 73.3 nM | 6.4 nM | – | – | – | CNC[C@H](c1ccc2ccccc2c1)[C@H](OCc1cccc(=O)n1C)c1ccccc1 [Compound 79]
15 | 9.6 | 16.2 nM | 39.2 nM | 3.3 nM | – | – | – | CNC[C@H](c1ccc2ccccc2c1)[C@H](OCc1nc(C(=O)OC)co1)c1ccccc1 [Compound 84]
16 | 9.7 | 3.3 nM | 8.9 nM | 2.4 nM | – | – | – | CNC[C@H](c1ccc2ccccc2c1)[C@H](OCC(=O)Nc1ccccc1)c1ccccc1 [Compound 45]
17 | 9.6 | 1.4 nM | 10.8 nM | 1.3 nM | – | – | – | CNC[C@H](c1ccc2ccccc2c1)[C@H](OCC(=O)NC1CCC1)c1ccccc1 [Compound 8]
18 | 9.6 | 10 nM | 17.9 nM | 4.4 nM | – | – | – | CNC[C@H](c1ccc2ccccc2c1)[C@H](OCC(=O)N(C)OC)c1ccccc1 [Compound 71]
19 | 9.6 | 3.9 nM | 141 nM | 2.6 nM | – | – | – | CNC[C@H](c1ccc2ccccc2c1)[C@H](OCC(=O)NCCOC)c1ccccc1 [Compound 51]
20 | 9.7 | 3.4 nM | 37.5 nM | 24.2 nM | – | – | – | CNC[C@H](c1ccc2ccccc2c1)[C@H](OC)c1ccccc1 [Compound 46]
